According to patent US20250367138A1 (Novocure GmbH, priority 2024, published 2025):

Key:
GBM cells = assay: Preliminary work: MGO-induced glycation and invasion of GBM cells; format: cell-based
Text: Glioblastoma (GBM) is a highly aggressive and invasive brain tumor.

[1] = test system: GBM cell lines U251, LN229, and U87; assay: Live cell count of GBM cell lines treated with MGO and TTFields (Inovitro system); format: cell-based
Text: At the experimental endpoint cells were visualized by microscopy, counted, and taken for protein or RNA extraction for further analysis.
GBM cell lines U251, LN229, and U87 were used in this Example. […] The Inovitro™ system was operated with low intensity (1-3 V/cm) and medium frequency (200 kHz) alternating electric fields, which have a selective antimitotic effect on cancer cells. […] In addition, the arrangement of alpha and gamma tubulin was visualised by immunofluorescence.
The results of each experiment are indicated as cell count (live cells).

`CC(=O)C=O` [MGO, methylglyoxal] was tested, and the “glycation of cell surface proteins” value (GBM cells) was “induces glycation of cell surface proteins”, the invasion / phenotype (GBM cells; associated with MGO-induced glycation) was “increased invasion” and the “proliferation of cells (cell count)” value ([1]; 0.1 mM MGO alone, FIG. 2) was “increased proliferation”. The “effect of TTFields on proliferation of cells under MGO” value ([1]; 0.1 mM MGO plus TTFields (200 kHz, 1-3 V/cm), FIG. 2) was “reduce the increased proliferation”, the “rate of apoptosis with additional TTFields” value ([1]; 0.3 mM MGO over the entire period plus TTFields (200 kHz, 1-3 V/cm)) was “enhanced” and the rate of apoptosis ([1]; 0.3 mM MGO over the entire period, alone, FIGS. 3-4) was “increased rate of apoptosis”. For the same compound, the “combination effect of concomitant TTFields and MGO (live cell count)” value ([1]; Example 2, experiments A-H: 0.1 or 0.3 mmol/L MGO, TTFields 24-72 h, U251, LN229, U87, FIGS. 5-12) was “synergistic effect”.
